{
  "source": "paper PMC10174618",
  "about": "“Monoterpenoid aryl hydrocarbon receptor allosteric antagonists protect against ultraviolet skin damage in female mice” (Nature Communications, 2023)",
  "test_in_all_cases": "biochemical",
  "parameters_in_all_cases": "KINOMEscan scanMAX active site-directed competition binding assay, percent of control, 468 kinases",
  "conditions_in_all_cases": "competition binding, percent of control",
  "key": {"PCTK2": {"target": "T1, PCTK2 (Homo sapiens, UniProt Q00537)", "T1 construct": "gene CDK17", "in_short": "(§1)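 KINOMEscan active site-directed competition binding assay against 468 human kinases with 100 μM S-carvone. Binding expressed as % of control, with 35% of control as the inhibition threshold.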"}, "AXL": {"target": "AXL (Homo sapiens, UniProt P30530)", "in_short": "as §1"}, "CDKL5": {"target": "CDKL5 (Homo sapiens, UniProt O76039)", "in_short": "as §1"}, "CAMK1B": {"target": "T2, CAMK1B (Homo sapiens, UniProt Q6P2M8)", "T2 construct": "gene PNCK", "in_short": "as §1"}, "MKNK1": {"target": "MKNK1 (Homo sapiens, UniProt Q9BUB5)", "sequence (Q9BUB5 whole entry)": "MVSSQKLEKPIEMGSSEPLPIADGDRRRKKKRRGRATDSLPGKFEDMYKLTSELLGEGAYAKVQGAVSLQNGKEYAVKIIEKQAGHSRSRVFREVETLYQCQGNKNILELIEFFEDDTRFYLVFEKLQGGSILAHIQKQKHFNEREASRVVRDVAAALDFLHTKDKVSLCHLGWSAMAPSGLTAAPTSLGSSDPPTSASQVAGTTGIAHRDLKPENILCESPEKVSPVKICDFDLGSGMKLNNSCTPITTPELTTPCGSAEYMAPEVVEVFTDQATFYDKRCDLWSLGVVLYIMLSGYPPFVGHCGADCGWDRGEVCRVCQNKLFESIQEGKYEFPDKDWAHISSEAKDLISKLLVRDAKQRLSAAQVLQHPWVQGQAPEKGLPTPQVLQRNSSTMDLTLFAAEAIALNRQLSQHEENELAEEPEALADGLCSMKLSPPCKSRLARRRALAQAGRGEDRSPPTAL", "in_short": "as §1"}, "CDK2": {"target": "CDK2 (Homo sapiens, UniProt P24941)", "in_short": "as §1"}, "PDPK1": {"target": "PDPK1 (Homo sapiens, UniProt O15530)", "in_short": "as §1"}, "ACVR2B": {"target": "ACVR2B (Homo sapiens, UniProt Q13705)", "sequence (Q13705 whole entry)": "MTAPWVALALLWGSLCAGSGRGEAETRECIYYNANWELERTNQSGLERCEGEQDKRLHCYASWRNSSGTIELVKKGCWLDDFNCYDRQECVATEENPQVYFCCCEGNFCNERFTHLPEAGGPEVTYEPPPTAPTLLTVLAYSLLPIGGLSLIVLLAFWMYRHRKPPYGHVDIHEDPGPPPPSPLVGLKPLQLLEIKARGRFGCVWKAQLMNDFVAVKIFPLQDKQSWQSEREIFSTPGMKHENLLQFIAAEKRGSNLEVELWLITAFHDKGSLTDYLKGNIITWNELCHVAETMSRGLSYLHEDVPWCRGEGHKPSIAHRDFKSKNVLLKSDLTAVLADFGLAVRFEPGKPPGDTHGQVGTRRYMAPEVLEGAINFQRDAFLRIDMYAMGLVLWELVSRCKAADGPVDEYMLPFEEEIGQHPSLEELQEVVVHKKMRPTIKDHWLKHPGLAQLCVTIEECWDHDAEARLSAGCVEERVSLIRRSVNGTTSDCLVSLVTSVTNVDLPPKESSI", "in_short": "as §1"}, "[1]": {"target": "T3, ABL1(Q252H)-phosphorylated (Homo sapiens, UniProt P00519, Q252H)", "T3 construct": "phosphorylated", "in_short": "as §1"}, "PDGFRA": {"target": "PDGFRA (Homo sapiens, UniProt P16234)", "in_short": "as §1"}, "MAP4K4": {"target": "MAP4K4 (Homo sapiens, UniProt O95819)", "in_short": "as §1"}, "PAK2": {"target": "PAK2 (Homo sapiens, UniProt Q13177)", "sequence (Q13177 whole entry)": "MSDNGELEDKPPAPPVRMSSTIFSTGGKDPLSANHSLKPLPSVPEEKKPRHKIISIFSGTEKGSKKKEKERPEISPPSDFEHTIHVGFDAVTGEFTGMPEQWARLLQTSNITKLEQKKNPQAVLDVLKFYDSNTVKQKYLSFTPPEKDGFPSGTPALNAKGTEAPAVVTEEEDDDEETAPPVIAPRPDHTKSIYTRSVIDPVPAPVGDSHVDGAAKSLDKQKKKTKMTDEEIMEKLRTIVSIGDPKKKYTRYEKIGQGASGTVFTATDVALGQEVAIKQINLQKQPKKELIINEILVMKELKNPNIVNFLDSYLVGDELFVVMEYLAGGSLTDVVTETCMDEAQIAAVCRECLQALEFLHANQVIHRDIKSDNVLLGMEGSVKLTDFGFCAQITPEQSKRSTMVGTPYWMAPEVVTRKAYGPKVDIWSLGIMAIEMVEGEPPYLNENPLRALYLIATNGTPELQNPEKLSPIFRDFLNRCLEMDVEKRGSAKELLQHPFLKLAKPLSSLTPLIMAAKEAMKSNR", "in_short": "as §1"}, "[2]": {"target": "EGFR(L747-S752del, P753S) (Homo sapiens, UniProt P00533, DEL747-752/P753S)", "sequence (P00533 with tags, fused parts or gaps DEL747-752/P753S)": "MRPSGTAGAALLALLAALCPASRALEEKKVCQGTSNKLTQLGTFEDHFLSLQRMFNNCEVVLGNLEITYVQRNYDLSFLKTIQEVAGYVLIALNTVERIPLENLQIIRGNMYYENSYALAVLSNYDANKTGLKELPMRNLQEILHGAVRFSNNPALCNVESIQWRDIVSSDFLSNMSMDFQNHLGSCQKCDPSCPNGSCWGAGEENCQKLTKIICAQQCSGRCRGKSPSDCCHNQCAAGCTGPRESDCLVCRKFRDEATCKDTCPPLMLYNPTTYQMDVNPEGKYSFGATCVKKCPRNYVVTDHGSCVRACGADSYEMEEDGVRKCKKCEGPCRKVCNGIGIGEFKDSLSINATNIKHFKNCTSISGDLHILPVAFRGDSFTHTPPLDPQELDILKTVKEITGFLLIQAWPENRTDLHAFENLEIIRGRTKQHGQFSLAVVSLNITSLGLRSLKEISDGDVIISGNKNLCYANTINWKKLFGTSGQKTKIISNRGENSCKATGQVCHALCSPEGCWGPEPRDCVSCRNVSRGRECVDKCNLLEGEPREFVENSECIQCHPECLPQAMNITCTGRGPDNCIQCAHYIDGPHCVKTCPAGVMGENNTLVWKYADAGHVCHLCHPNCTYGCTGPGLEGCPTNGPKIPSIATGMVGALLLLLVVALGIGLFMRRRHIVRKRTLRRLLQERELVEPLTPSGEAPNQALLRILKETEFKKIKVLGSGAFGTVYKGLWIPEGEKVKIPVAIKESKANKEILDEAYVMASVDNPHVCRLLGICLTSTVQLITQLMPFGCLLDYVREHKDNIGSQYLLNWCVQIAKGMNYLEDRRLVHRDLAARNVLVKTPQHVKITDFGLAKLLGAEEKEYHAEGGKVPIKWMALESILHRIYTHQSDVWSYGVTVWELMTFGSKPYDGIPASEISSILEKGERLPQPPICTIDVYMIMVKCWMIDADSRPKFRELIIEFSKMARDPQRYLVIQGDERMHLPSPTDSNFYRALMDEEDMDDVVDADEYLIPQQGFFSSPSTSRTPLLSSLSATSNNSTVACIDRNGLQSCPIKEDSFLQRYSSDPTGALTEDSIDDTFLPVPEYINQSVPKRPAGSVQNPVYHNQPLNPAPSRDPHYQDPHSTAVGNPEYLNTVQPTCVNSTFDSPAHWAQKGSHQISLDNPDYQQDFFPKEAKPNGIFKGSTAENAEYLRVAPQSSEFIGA", "in_short": "as §1"}, "CAMKK1": {"target": "CAMKK1 (Homo sapiens, UniProt Q8N5S9)", "in_short": "as §1"}, "EPHA1": {"target": "EPHA1 (Homo sapiens, UniProt P21709)", "sequence (P21709 whole entry)": "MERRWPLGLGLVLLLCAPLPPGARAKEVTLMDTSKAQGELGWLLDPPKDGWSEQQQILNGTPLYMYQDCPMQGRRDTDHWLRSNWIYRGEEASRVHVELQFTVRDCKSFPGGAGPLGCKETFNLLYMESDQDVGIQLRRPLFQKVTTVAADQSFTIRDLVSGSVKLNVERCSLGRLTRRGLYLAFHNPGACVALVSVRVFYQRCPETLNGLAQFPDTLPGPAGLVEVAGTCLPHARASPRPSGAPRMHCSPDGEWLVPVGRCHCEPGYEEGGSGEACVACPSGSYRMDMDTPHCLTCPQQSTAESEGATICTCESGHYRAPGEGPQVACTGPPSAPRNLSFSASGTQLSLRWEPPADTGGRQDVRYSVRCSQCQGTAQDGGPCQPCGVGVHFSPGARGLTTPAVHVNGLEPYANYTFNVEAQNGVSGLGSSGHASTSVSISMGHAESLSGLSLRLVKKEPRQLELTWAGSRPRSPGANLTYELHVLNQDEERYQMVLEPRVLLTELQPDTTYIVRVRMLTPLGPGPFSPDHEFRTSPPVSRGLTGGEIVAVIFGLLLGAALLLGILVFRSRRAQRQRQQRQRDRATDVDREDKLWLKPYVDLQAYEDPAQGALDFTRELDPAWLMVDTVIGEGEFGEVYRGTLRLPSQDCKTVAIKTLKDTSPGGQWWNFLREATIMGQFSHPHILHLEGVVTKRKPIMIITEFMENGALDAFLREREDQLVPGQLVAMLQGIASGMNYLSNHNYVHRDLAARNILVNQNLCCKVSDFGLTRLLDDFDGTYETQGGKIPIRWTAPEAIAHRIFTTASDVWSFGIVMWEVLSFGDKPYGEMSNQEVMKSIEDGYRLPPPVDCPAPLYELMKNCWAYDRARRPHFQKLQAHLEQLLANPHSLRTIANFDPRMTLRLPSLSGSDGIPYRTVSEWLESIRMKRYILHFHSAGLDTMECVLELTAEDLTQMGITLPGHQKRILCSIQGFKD", "in_short": "as §1"}, "[3]": {"target": "T4, ABL1(F317I)-phosphorylated (Homo sapiens, UniProt P00519, F317I)", "T4 construct": "phosphorylated", "in_short": "as §1"}, "DYRK1A": {"target": "DYRK1A (Homo sapiens, UniProt Q13627)", "in_short": "as §1"}, "[4]": {"target": "T5, TYK2(JH1domain-catalytic) (Homo sapiens, UniProt P29597)", "T5 construct": "JH1domain-catalytic", "in_short": "as §1"}, "WNK3": {"target": "WNK3 (Homo sapiens, UniProt Q9BYP7)", "in_short": "as §1"}, "MAK": {"target": "MAK (Homo sapiens, UniProt P20794)", "sequence (P20794 whole entry)": "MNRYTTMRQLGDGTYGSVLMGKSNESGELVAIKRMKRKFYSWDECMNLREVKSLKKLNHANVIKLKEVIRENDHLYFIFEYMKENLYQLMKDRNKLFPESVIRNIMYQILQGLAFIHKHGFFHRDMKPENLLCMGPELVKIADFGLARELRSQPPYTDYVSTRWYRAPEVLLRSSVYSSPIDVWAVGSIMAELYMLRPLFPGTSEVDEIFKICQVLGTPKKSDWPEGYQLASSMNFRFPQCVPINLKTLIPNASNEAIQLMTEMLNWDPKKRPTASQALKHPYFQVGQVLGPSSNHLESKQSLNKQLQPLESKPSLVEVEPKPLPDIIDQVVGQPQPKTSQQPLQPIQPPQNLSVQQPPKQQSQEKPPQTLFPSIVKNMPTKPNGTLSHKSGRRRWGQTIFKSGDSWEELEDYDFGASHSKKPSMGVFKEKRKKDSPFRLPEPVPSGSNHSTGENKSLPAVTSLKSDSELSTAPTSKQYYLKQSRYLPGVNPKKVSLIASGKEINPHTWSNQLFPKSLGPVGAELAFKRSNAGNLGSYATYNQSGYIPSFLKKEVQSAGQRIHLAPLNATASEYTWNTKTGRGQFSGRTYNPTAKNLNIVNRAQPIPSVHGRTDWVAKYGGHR", "in_short": "as §1"}, "IRAK1": {"target": "IRAK1 (Homo sapiens, UniProt P51617)", "sequence (P51617 whole entry)": "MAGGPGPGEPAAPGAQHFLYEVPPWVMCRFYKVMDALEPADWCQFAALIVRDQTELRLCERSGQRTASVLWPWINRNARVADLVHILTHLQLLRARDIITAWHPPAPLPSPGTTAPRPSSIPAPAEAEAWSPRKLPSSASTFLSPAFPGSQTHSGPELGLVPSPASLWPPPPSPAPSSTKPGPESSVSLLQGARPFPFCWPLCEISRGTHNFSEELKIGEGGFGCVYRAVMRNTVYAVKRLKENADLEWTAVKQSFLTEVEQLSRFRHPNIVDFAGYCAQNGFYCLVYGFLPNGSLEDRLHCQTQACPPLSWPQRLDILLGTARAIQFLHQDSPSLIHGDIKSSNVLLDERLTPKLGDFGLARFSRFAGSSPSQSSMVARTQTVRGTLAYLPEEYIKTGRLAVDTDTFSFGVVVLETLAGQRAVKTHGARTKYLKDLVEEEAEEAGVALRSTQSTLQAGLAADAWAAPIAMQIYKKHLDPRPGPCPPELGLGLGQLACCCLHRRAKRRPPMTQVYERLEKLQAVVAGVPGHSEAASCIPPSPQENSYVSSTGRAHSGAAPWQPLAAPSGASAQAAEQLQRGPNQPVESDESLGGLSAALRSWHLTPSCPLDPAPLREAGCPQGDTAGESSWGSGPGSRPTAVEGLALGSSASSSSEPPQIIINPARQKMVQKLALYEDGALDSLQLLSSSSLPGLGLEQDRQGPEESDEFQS", "in_short": "as §1"}, "TEC": {"target": "TEC (Homo sapiens, UniProt P42680)", "in_short": "as §1"}},
  "data": [
    {"smiles": "C=C(C)[C@H]1CC=C(C)C(=O)C1", "note": "[S-carvone]", "values": [
      {"measurement": "remaining binding at 100 µM", "setting": "PCTK2", "result": 97, "unit": "%"},
      {"measurement": "remaining binding at 100 µM", "setting": "AXL", "result": 82, "unit": "%"},
      {"measurement": "remaining binding at 100 µM", "setting": "CDKL5", "result": 96, "unit": "%"},
      {"measurement": "remaining binding at 100 µM", "setting": "CAMK1B", "result": 61, "unit": "%"},
      {"measurement": "remaining binding at 100 µM", "setting": "MKNK1", "result": 62, "unit": "%"},
      {"measurement": "remaining binding at 100 µM", "setting": "CDK2", "result": 85, "unit": "%"},
      {"measurement": "remaining binding at 100 µM", "setting": "PDPK1", "result": 74, "unit": "%"},
      {"measurement": "remaining binding at 100 µM", "setting": "ACVR2B", "result": 75, "unit": "%"},
      {"measurement": "remaining binding at 100 µM", "setting": "[1]", "result": 55, "unit": "%"},
      {"measurement": "remaining binding at 100 µM", "setting": "PDGFRA", "result": 80, "unit": "%"},
      {"measurement": "remaining binding at 100 µM", "setting": "MAP4K4", "result": 85, "unit": "%"},
      {"measurement": "remaining binding at 100 µM", "setting": "PAK2", "result": 98, "unit": "%"},
      {"measurement": "remaining binding at 100 µM", "setting": "[2]", "result": 68, "unit": "%"},
      {"measurement": "remaining binding at 100 µM", "setting": "CAMKK1", "result": 94, "unit": "%"},
      {"measurement": "remaining binding at 100 µM", "setting": "EPHA1", "result": 82, "unit": "%"},
      {"measurement": "remaining binding at 100 µM", "setting": "[3]", "result": 97, "unit": "%"},
      {"measurement": "remaining binding at 100 µM", "setting": "DYRK1A", "result": 91, "unit": "%"},
      {"measurement": "remaining binding at 100 µM", "setting": "[4]", "result": 58, "unit": "%"},
      {"measurement": "remaining binding at 100 µM", "setting": "WNK3", "result": 100, "unit": "%"},
      {"measurement": "remaining binding at 100 µM", "setting": "MAK", "result": 73, "unit": "%"},
      {"measurement": "remaining binding at 100 µM", "setting": "IRAK1", "result": 65, "unit": "%"},
      {"measurement": "remaining binding at 100 µM", "setting": "TEC", "result": 96, "unit": "%"}
    ]}
  ]
}
